{"source": "paper PMC6123649", "about": "“Structural basis for specific inhibition of the highly sensitive ShHTL7 receptor” (EMBO Reports, 2018)", "key": {"ShHTL7S95C": {"molecular_target": "ShHTL7S95C", "test": "Intrinsic Triton fluorescence binding assay", "design": "species or system Striga hermonthica", "settings": "inactive ShHTL7S95C; buffer with 0.005% Tween‐20; converged after 2.5 h of incubation; read-out: dissociation constant (Kd), intrinsic Triton fluorescence"}, "ShHTL7 [1]": {"molecular_target": "T1, ShHTL7 (Striga hermonthica, UniProt A0A0M3PNA2)", "T1 sequence (A0A0M3PNA2 1-271)": "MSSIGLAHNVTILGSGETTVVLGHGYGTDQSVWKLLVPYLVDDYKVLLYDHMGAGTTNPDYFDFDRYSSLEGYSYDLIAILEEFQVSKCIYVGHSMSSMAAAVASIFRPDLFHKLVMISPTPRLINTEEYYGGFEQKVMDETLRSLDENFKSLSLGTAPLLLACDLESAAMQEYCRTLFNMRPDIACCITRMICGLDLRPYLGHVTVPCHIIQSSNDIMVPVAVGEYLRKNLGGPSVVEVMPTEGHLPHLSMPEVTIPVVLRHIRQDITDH", "test": "Yoshimulactone Green (YLG) hydrolysis competition assay", "format": "biochemical", "protocol": "In vitro YLG hydrolysis assays were performed using 3 μM of ShHTL7, ShHTL7‐L143Y, AtD14, and OsD14 in a reaction buffer (1× PBS) with 0.1% dimethyl sulfoxide (DMSO) in a 100 μl volume on a 96‐well black plate (Greiner). The fluorescent intensity was measured by SpectraMax i3 (Molecular Devices) using an excitation wavelength of 480 nm and a detection wavelength of 520 nm. […] Protein‐Triton mixes were pre‐incubated for 30 min. 1 μM YLG (Tokyo Chemical Industry Co. Ltd.) was then added, and the assay was incubated for 60 min. The change in fluorescence observed over the course of 1 h incubation of YLG in buffer without protein was subtracted from the data collected in the presence of protein. The resulting relative fluorescence values were analyzed. The inhibitory curves and IC50 values were plotted using GraphPad (Prism 6) four‐parameter logistic curve. The rate of YLG hydrolysis by ShHTL7 was recorded following the above method at 10‐min interval for 2 h."}, "ShHTL7‐L143Y": {"tested_on": "ShHTL7‐L143Y", "test": "YLG hydrolysis assay", "format": "biochemical, Striga hermonthica", "protocol": "In vitro YLG hydrolysis assays were performed using 3 μM of ShHTL7, ShHTL7‐L143Y, AtD14, and OsD14 in a reaction buffer (1× PBS) with 0.1% dimethyl sulfoxide (DMSO) in a 100 μl volume on a 96‐well black plate (Greiner). The fluorescent intensity was measured by SpectraMax i3 (Molecular Devices) using an excitation wavelength of 480 nm and a detection wavelength of 520 nm. ShHTL7, ShHTL7‐L143Y, AtD14, and OsD14 were mixed with Triton X‐100, using serial dilutions to cover the Triton X‐100 concentration range from 5 μM until 4.87 nM. Protein‐Triton mixes were pre‐incubated for 30 min. 1 μM YLG (Tokyo Chemical Industry Co. Ltd.) was then added, and the assay was incubated for 60 min. The change in fluorescence observed over the course of 1 h incubation of YLG in buffer without protein was subtracted from the data collected in the presence of protein. The resulting relative fluorescence values were analyzed. The inhibitory curves and IC50 values were plotted using GraphPad (Prism 6) four‐parameter logistic curve. The rate of YLG hydrolysis by ShHTL7 was recorded following the above method at 10‐min interval for 2 h."}, "ShHTL7 L143Y mutant": {"tested_on": "ShHTL7 L143Y mutant", "test": "Intrinsic Triton fluorescence binding assay", "design": "species or system Striga hermonthica", "protocol": "Triton X‐100 has an excitation and emission wavelength of 275 and 302 nm, respectively. ShHTL7, ShHTL7‐L143Y, AtD14, and OsD14 were incubated in 50 mM Tris–HCl pH 7.5, 150 mM NaCl, with or without 0.005% Tween‐20, at concentrations ranging from 10 μM to 1 nM (obtained using serial dilutions) with 154 nM of Triton X‐100 for 1–2 h, and fluorescence values were then measured by SpectraMax i3 (Molecular Devices) at excitation and detection wavelengths of 275 and 302 nm, respectively. […] Data were normalized to the background fluorescence from the protein to obtain the change in Triton X‐100 fluorescence intensity. To determine the K d, the changes in Triton X‐100 fluorescence intensity were plotted against the concentration of the protein using the single binding site model implemented in GraphPad (Prism 6)."}, "ShHTL7 [2]": {"molecular_target": "T1, ShHTL7", "test": "Drug affinity response target stability (DARTS) assay", "format": "binding", "settings": "100 μM compound; proteinase K 10 μg/ml", "protocol": "ShHTL7 and mutants were diluted to a concentration of 30 μM in 50 mM Tris–HCl pH 7.5, 150 mM NaCl, 0.005% Tween‐20, incubated with GR24 at final concentration of 100 μM for 5 min, and separately with 100 μM Triton X‐100 for 2 h. One sample was kept aside for use as an undigested control. Proteinase K (Hampton Research) was then added to ShHTL7 protein to a final protease concentration of 10 μg/ml. Reactions were incubated at room temperature for 5 min and then SDS–PAGE loading buffer was added to stop the reaction, and the samples were immediately boiled for 3 min. Equal amounts of each sample, corresponding to 10 μg of protein, were run on a 4–20% gradient polyacrylamide gel (Bio‐Rad) and analyzed by Coomassie Blue staining 32."}}}
{"substance": "Triton X-100", "values": [{"measurement": "Kd", "setting": "ShHTL7S95C", "value": "195 ± 21", "unit": "nM"}, {"measurement": "IC50", "setting": "ShHTL7 [1]; 3 μM ShHTL7, 1 μM YLG, pre‐incubation with compound, read-out: IC50, YLG hydrolysis by ShHTL7", "value": "470 ± 110", "unit": "nM"}, {"measurement": "fold lower IC50 than that reported for Soporidine", "setting": "ShHTL7 [1]; compared with non‐specific inhibitor Soporidine", "value": 25, "unit": "fold"}, {"measurement": "inhibition of hydrolysis activity of ShHTL7 L143Y", "setting": "ShHTL7‐L143Y", "value": "did not inhibit"}, {"measurement": "binding to ShHTL7 L143Y mutant in vitro", "setting": "ShHTL7 L143Y mutant", "value": "failed to bind"}, {"measurement": "protection of ShHTL7 from digestion by proteinase K", "setting": "ShHTL7 [2]", "value": "efficiently protected"}]}
